Experimental data: US20200031778A1, “NOVEL 5-SUBSTITUTED IMIDAZOLYLMETHYL DERIVATIVES” (Bayer CropScience Aktiengesellschaft, priority 2016, published 2020)

Tests used:
[1] = tested on: Uromyces appendiculatus; assay: Example IX-D: in vivo preventive test on Uromyces appendiculatus (bean rust); details: 264 h, compounds of formula IX, 500 ppm of active ingredient, bean plants, preventive spray, evaluated 11 days after inoculation, read-out: efficacy
Procedure: Example IX-D: In Vivo Preventive Test on Uromyces Appendiculatus (Bean Rust)
(§1) The active ingredients are made soluble and homogenized in a mixture of Dimethyl sulfoxide/Acetone/Tween® 80 and then diluted in water to the desired concentration.
The young plants of bean are treated by spraying the active ingredient prepared as described above. Control plants are treated only with an aqueous solution of Acetone/Dimethyl sulfoxide/Tween® 80.
After 24 hours, the plants are contaminated by spraying the leaves with an aqueous suspension of Uromyces appendiculatus spores. The contaminated bean plants are incubated for 24 hours at 20° C. and at 100% relative humidity and then for 10 days at 20° C. and at 70-80% relative humidity.
(§2) The test is evaluated 11 days after the inoculation. 0% means an efficacy which corresponds to that of the control plants while an efficacy of 100% means that no disease is observed.
control plants while an efficacy of 100% means that no disease was observed.

[2] = tested on: Puccinia recondita; assay: Example IX-A: in vivo preventive test on Puccinia recondita (brown rust on wheat); details: 264 h, compounds of formula IX, 500 ppm of active ingredient, wheat plants, preventive spray, evaluated 11 days after inoculation, read-out: efficacy
Procedure: Example IX-A: In Vivo Preventive Test on Puccinia Recondita (Brown Rust on Wheat)
as §1
(§3) The young plants of wheat are treated by spraying the active ingredient prepared as described above. Control plants are treated only with an aqueous solution of Acetone/Dimethyl sulfoxide/Tween® 80.
After 24 hours, the plants are contaminated by spraying the leaves with an aqueous suspension of Puccinia recondita spores. The contaminated wheat plants are incubated for 24 hours at 20° C. and at 100% relative humidity and then for 10 days at 20° C. and at 70-80% relative humidity.
as §2

[3] = Log P by HPLC on reversed phase columns (EEC directive 79/831 Annex V.A8; methods [a], [b], [c]); assay type: physicochemical; details: reversed phase HPLC column; method [a]: LC-UV, acidic range, 0.1% formic acid in water and acetonitrile as eluent (linear gradient from 10% to 95% acetonitrile)
Method in brief: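 Reversed-phase HPLC with LC-UV detection, 10→95% acetonitrile linear gradient; aqueous eluent 0.1% formic acid [a], 0.001 M ammonium acetate, neutral [b], or 0.1% phosphoric acid [c]. Calibrated against C3–C16 alkan-2-ones of known Log P by retention-time linear interpolation; multiple values within a method separated by "+".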

[4] = tested on: Sphaerotheca fuliginea; assay: Example IX-C: in vivo preventive test on Sphaerotheca fuliginea (powdery mildew on cucurbits); details: Podosphaera fuliginea, 360 h; compounds of formula IX; 500 ppm of active ingredient; gherkin plants, preventive spray; evaluated 15 days after inoculation; read-out: efficacy
Procedure: Example IX-C: In Vivo Preventive Test on Sphaerotheca Fuliginea (Powdery Mildew on Cucurbits)
as §1
The young plants of gherkin are treated by spraying the active ingredient prepared as described above. Control plants are treated only with an aqueous solution of Acetone/Dimethyl sulfoxide/Tween® 80.
After 24 hours, the plants are contaminated by spraying the leaves with an aqueous suspension of Sphaerotheca fuliginea spores. The contaminated gherkin plants are incubated for 72 hours at 18° C. and at 100% relative humidity and then for 12 days at 20° C. and at 70-80% relative humidity.
The test is evaluated 15 days after the inoculation. 0% means an efficacy which corresponds to that of the control plants while an efficacy of 100% means that no disease is observed.

[5] = tested on: Septoria tritici; assay: Example IX-B: in vivo preventive test on Septoria tritici (leaf spot on wheat); details: Zymoseptoria tritici, 576 h; compounds of formula IX; 500 ppm of active ingredient; wheat plants, preventive spray; evaluated 24 days after inoculation; read-out: efficacy
Procedure: Example IX-B: In Vivo Preventive Test on Septoria Tritici (Leaf Spot on Wheat)
as §1, §3
After 24 hours, the plants are contaminated by spraying the leaves with an aqueous suspension of Septoria tritici spores. The contaminated wheat plants are incubated for 72 hours at 18° C. and at 100% relative humidity and then for 21 days at 20° C. and at 90% relative humidity.
The test is evaluated 24 days after the inoculation. 0% means an efficacy which corresponds to that of the control plants while an efficacy of 100% means that no disease is observed.

Row | SMILES | chromatographic logP [3] | pest or weed control at 500 ppm [1] | pest or weed control at 500 ppm [2] | pest or weed control at 500 ppm [4] | pest or weed control at 500 ppm [5]
1 | O=C(Cn1cncc1Cl)c1ccc(Oc2ccc(I)cc2)cc1F [IX-47] | 3.19 | 90 to 100% | 90 to 100% | 90 to 100% | 90 to 100%
2 | O=C(Cn1cncc1Cl)c1ccc(Oc2ccc(Br)cc2)cc1Br [IX-37] | 3.22 | 90 to 100% | 80 to 89% | 90 to 100% | 90 to 100%
3 | N#Cc1cncn1CC(=O)c1ccc(Oc2ccc(Cl)cc2)cc1F [IX-64] | 3.27 | 90 to 100% | 90 to 100% | 90 to 100% | 90 to 100%
4 | O=C(Cn1cncc1Br)c1ccc(Oc2ccc(Br)cc2)cc1Cl [IX-39, 1-[4-(4-bromophenoxy)-2-chloro-phenyl]-2-(5-bromoimidazol-1-yl)ethanone] | 3.1 | 90 to 100% | 90 to 100% | 90 to 100% | 90 to 100%
5 | N#Cc1cncn1CC(=O)c1ccc(Oc2ccc(Cl)cc2)cc1C(F)(F)F [IX-54] | 3.55 | 70 to 79% | 90 to 100% | 90 to 100% | 90 to 100%
6 | O=C(Cn1cncc1Cl)c1ccc(Oc2ccc(Cl)cn2)cc1Cl [IX-05] | 2.53 | 80 to 89% | 70 to 79% | 90 to 100% | 80 to 89%
7 | O=C(Cn1cncc1Br)c1ccc(Oc2ccc(OC(F)(F)F)cc2)cc1Br [IX-06] | 3.53 | 70 to 79% | 80 to 89% | 90 to 100% | 90 to 100%
8 | O=C(Cn1cncc1Cl)c1ccc(Oc2ccc(OC(F)(F)F)cc2)cc1Cl [IX-09] | 3.37 | 90 to 100% | 90 to 100% | 90 to 100% | 90 to 100%
9 | O=C(Cn1cncc1Cl)c1ccc(Oc2ccc(Br)cc2)cc1C(F)(F)F [IX-29] | 3.37 | 80 to 89% | 90 to 100% | 80 to 89% | 90 to 100%
10 | N#Cc1cncn1CC(=O)c1ccc(Oc2ccc(Cl)nc2)cc1Cl [IX-60] | 2.62 | 90 to 100% | 80 to 89% | 90 to 100% | 90 to 100%

Further lines, with some results ahead:

Row | chromatographic logP [3] | SMILES | pest or weed control at 500 ppm [1] | pest or weed control at 500 ppm [2] | pest or weed control at 500 ppm [4] | pest or weed control at 500 ppm [5]
11 | 3.33 | N#Cc1cncn1CC(=O)c1ccc(Oc2ccc(Cl)cc2)nc1C(F)(F)F [IX-107] | 80 to 89% | 90 to 100% | 90 to 100% | 90 to 100%
12 | 3.62 | N#Cc1cncn1CC(=O)c1ccc(Oc2ccc(Br)cc2)cc1Br [IX-67] | 90 to 100% | 90 to 100% | 90 to 100% | 90 to 100%
13 | 3.42 | N#Cc1cncn1CC(=O)c1ccc(Oc2ccc(S(F)(F)(F)(F)F)cc2)nc1Cl [IX-74] | 90 to 100% | 90 to 100% | 90 to 100% | 90 to 100%
14 | 2.32 | O=C(Cn1cncc1F)c1cnc(Oc2ccc(Cl)cc2)cc1Cl [IX-94] | 90 to 100% | 80 to 89% | 90 to 100% | 90 to 100%
15 | 3.69 | N#Cc1cncn1CC(=O)c1ccc(Oc2ccc(C(F)(F)F)cc2)cc1C(F)(F)F [IX-69] | 90 to 100% | 90 to 100% | 90 to 100% | 90 to 100%
